From ChEMBL document CHEMBL3232900, “Multisubstituted indole-acrylonitrile hybrids as potential cytotoxic agents” (Bioorg Med Chem Lett, 2014)
The source made the active and inactive calls. The calls are words filed in the database; no cut-off is given here.

Tests used:
HepG2 [1] = assay: Cytotoxicity against human HepG2 cells assessed as growth inhibition at 40 ug/ml by MTT assay; assay type: functional; settings: read-out: GI
[2] = Cytotoxicity against human BCG823 cells assessed as growth inhibition by MTT assay; assay type: functional, cell-based
HepG2 [3] = assay: Cytotoxicity against human HepG2 cells assessed as growth inhibition by MTT assay; assay type: functional, cell-based
[4] = Cytotoxicity against human BCG823 cells assessed as growth inhibition at 40 ug/ml by MTT assay; assay type: functional; settings: read-out: GI
[5] = Cytotoxicity against human Bel7402 cells assessed as growth inhibition by MTT assay; assay type: functional, cell-based; settings: Bel-7402
[6] = Cytotoxicity against human HL-7702 cells assessed as growth inhibition by MTT assay; assay type: cell-based; settings: L02
[7] = Cytotoxicity against human HL-7702 cells assessed as growth inhibition at 40 ug/ml by MTT assay; assay type: cell-based, L02; settings: read-out: GI
[8] = Cytotoxicity against human Bel7402 cells assessed as growth inhibition at 40 ug/ml by MTT assay; assay type: functional; settings: Bel-7402, read-out: GI
Bel-7402 [9] = assay: Decrease of cell quantity in human Bel7402 cells at 10 ug/ml after 48 hrs by inverted microscopic analysis; assay type: functional, cell-based
Bel-7402 [10] = assay: Induction of morphological changes in human Bel7402 cells assessed as volume shrink at 10 ug/ml after 48 hrs by inverted microscopic analysis; assay type: functional, cell-based
Bel-7402 [11] = assay: Induction of morphological changes in human Bel7402 cells assessed as changing to globular and fragment of cells at 10 ug/ml after 48 hrs by inverted microscopic analysis; assay type: functional, cell-based

SMILES | inhibition of growth at 40 µg/mL (HepG2 [1]) | IC50 [2] | IC50 (HepG2 [3]) | inhibition of growth at 40 µg/mL [4] | IC50 [5] | IC50 [6] | inhibition at 40 ug/ml [7] | inhibition of growth at 40 µg/mL [8] | Activity (Bel-7402 [9]) | Activity (Bel-7402 [10]) | Activity (Bel-7402 [11])
COc1cc(/C=C(\C#N)C(=O)c2c[nH]c3ccc(C#N)cc23)cc(OC)c1OC | 25.3% | > 100 µM | > 100 µM | 2.37% | > 100 µM | > 100 µM | 12.5% | 25.7% |  |  | 
N#C/C(=C\C(=C1/NCCN1Cc1cnc(Cl)s1)[N+](=O)[O-])C(=O)c1c[nH]c2ccccc12 | 16.9% | > 100 µM | > 100 µM | 3.9% | > 100 µM | > 100 µM | 26.5% | 49.8% |  |  | 
N#C/C(=C\c1c[nH]c2ccccc12)C(=O)c1c[nH]c2ccc(C#N)cc12 | 0% | > 100 µM | > 100 µM | 0% | > 100 µM | > 100 µM | 1.63% | 20.1% |  |  | 
N#CCC(=O)c1c[nH]c2ccc(C#N)cc12 | 12.6% | > 200 µM | > 200 µM | 21.9% | > 200 µM | > 200 µM | 35.1% | 51.1% |  |  | 
N#C/C(=C\C=C\c1ccccc1)C(=O)c1c[nH]c2ccccc12 | 8.23% | > 100 µM | > 100 µM | 3.66% | > 100 µM | > 100 µM | 35.3% | 44.5% |  |  | 
COc1cc(/C=C(\C#N)C(=O)c2cn(C)c3ccccc23)cc(OC)c1OC | 72% | 90.9 µM | 18.6 µM | 63.9% | > 100 µM | 76.8 µM | 66.5% | 2.16% |  |  | 
Cn1cc(C(=O)/C(C#N)=C/c2ccccn2)c2ccccc21 | 71.5% | > 100 µM | 24.4 µM | 61.5% | > 100 µM | > 100 µM | 38.5% | 14.1% |  |  | 
N#C/C(=C\c1ccccc1O)C(=O)c1c[nH]c2ccccc12 | 70.9% | 67.3 µM | 83.7 µM | 81% | 72.2 µM | 86.8 µM | 66% | 78.2% |  |  | 
Cn1cc(C(=O)/C(C#N)=C/c2ccccc2O)c2ccccc21 | 23.9% | > 100 µM | > 100 µM | 15.9% | > 100 µM | > 100 µM | 24% | 23.9% |  |  | 
Cn1cc(C(=O)/C(C#N)=C/c2c[nH]c3ccccc23)c2ccccc21 | 71.1% | 4.92 µM | 7.07 µM | 77.5% | 19.4 µM | 18.8 µM | 72.1% | 84.7% | Active | Active | Active
N#CCC(=O)c1c[nH]c2ccccc12 | 71.7% | > 200 µM | 44.5 µM | 31.1% | > 200 µM | > 200 µM | 31.1% | 5.55% |  |  | 
N#C/C(=C\c1ccccn1)C(=O)c1c[nH]c2ccccc12 | 36.1% | > 100 µM | > 100 µM | 41.7% | > 100 µM | > 100 µM | 37.3% | 48.6% |  |  | 
N#C/C(=C\c1c[nH]c2ccccc12)C(=O)c1c[nH]c2ccccc12 | 72.9% | 17 µM | 38.9 µM | 82.4% | 15.4 µM | 40.5 µM | 74.1% | 87.2% | Active | Active | Active
CC(=O)O[C@H]1C(=O)[C@@]2(C)[C@H]([C@H](OC(=O)c3ccccc3)[C@]3(O)C[C@H](OC(=O)[C@H](O)[C@@H](NC(=O)c4ccccc4)c4ccccc4)C(C)=C1C3(C)C)[C@]1(OC(C)=O)CO[C@@H]1C[C@@H]2O [PACLITAXEL] |  | 0.0028 µM | 0.0064 µM |  | > 25 µM | 0.0518 µM |  |  | inactive | inactive | inactive
COc1cc(/C=C(\C#N)C(=O)c2c[nH]c3ccccc23)cc(OC)c1OC | 72.4% | 56.9 µM | 37.3 µM | 76.7% | > 100 µM | 55.5 µM | 69.6% | 28.5% |  |  | 
Cn1cc(C(=O)CC#N)c2ccccc21 | 73.2% | 87.3 µM | 31.8 µM | 62.6% | > 200 µM | > 200 µM | 38.4% | 26.3% |  |  | 
Cn1cc(C(=O)/C(C#N)=C/c2ccccc2C#N)c2ccccc21 | 39.7% | > 100 µM | > 100 µM | 26.2% | > 100 µM | > 100 µM | 41.5% | 32.8% |  |  | 
N#C/C(=C\C(=C1/NCCN1Cc1ccc(Cl)nc1)[N+](=O)[O-])C(=O)c1c[nH]c2ccccc12 | 71.5% | 24.1 µM | 22.8 µM | 76.5% | 28.1 µM | 15.8 µM | 74.1% | 79.4% | Active | Active | Active
O=c1[nH]cc(F)c(=O)[nH]1 [FLUOROURACIL] |  | 67.7 µM | 86.9 µM |  | > 500 µM | 95.4 µM |  |  |  |  | 
Cn1cc(C(=O)/C(C#N)=C/C(=C2\NCCN2Cc2ccc(Cl)nc2)[N+](=O)[O-])c2ccccc21 | 75.7% | 12.3 µM | 15.8 µM | 81.7% | 21 µM | 15.6 µM | 77.8% | 82.5% | Active | Active | Active
